Measurements as given in patent US6579880B2, “Isoxazoles and oxadiazoles as anti-inflammatory inhibitors of IL-8” (Ortho-McNeil Pharmaceutical, Inc., priority 2000, dated 2003).

What follows are compounds tested on IL-8 receptor (purified human neutrophils) (assay: radio labeled IL-8 receptor binding assay in purified human neutrophils using I125-IL-8 as ligand). Settings: Table 1; inhibition of I125-IL-8 (0.125 nM) binding to human neutrophils, 37° C. 60 minutes; read-out: IC50.
Method: Neutrophils are purified from fresh human blood by dextran sedimentation in an equal volume of 3% dextran in saline for 30 minutes. After sedimentation, the blood is centrifuged for 10 minutes at 1000 rpm at 4° C. and the supernate is aspirated and discarded. […] Ten mls ficoll is underlaid of the blood and the sample is centrifuged for 40 minutes at 1400 rpm at 25° C. After centrifugation, the supernate is removed and the cells re-suspended for cell counting. Cell volume is adjusted to 8×10^5 cells/ml in binding buffer without BSA.
The plates are then incubated at 37° C. for 60 minutes and the supernate is aspirated to within 2 mm of the bottom of the well. The plates are then sealed and counted for 1 minute in a Packard TopCount.
Drug treated wells are compared to vehicle treated wells for inhibition of binding as determined by a decrease in dpm as compared to the vehicle wells.
% Inhibition is calculated as follows: [formula]
IC50 is calculated using K-Graph.

Question: `CN1CCN(CCCOc2ccc(-c3cc(-c4ccc(C(C)(C)C)cc4)no3)cc2)CC1` [Compound 4, piperazine, 1-[3-[4-[3-[4-(1,1-dimethylethyl)phenyl]-5-isoxazolyl]phenoxy]propyl]-4-methyl-] was tested. Which IC50 did it give?
Answer: The IC50 was 2.7 µM.

Question: How did the IC50 turn out when `CN1CCN(CCCOc2ccc(-c3cc(-c4ccc(Cl)c(C(F)(F)F)c4)no3)cc2)CC1` [Compound 8, piperazine, 1-[3-[4-[3-[4-chloro-3-(trifluoromethyl)phenyl]-5-isoxazolyl]phenoxy]propyl]-4-methyl-] was run?
Answer: The IC50 was 2.7 µM.

Question: Which IC50 does the source give for `Clc1ccc(-c2noc(-c3ccc(OCCCN4CCNCC4)cc3)n2)cc1` [Compound 15, piperazine, 1-[3-[4-[3-(4-chlorophenyl)-1,2,4-oxadiazol-5-yl]phenoxy]propyl]-] here?
Answer: Its IC50 is 2.8 µM.

Same assay, conditions: Table 2; inhibition of I125-IL-8 (0.125 nM) binding to human neutrophils, 37° C. 60 minutes; read-out: IC50

Question: For `Cc1ccc(-c2cc(-c3ccc(OCCCN(C)C)cc3)no2)cc1` [Compound 19], which IC50 is on record?
Answer: The IC50 was 5.1 µM.

Question: How did the IC50 turn out when `CN(C)CCCOc1ccc(-c2cc(-c3ccc(Cl)cc3)on2)cc1` [Compound 21, 1-propanamine, 3-[4-[5-(4-chlorophenyl)-3-isoxazolyl]phenoxy]-N, N-dimethyl-] was run?
Answer: Its IC50 is 2.7 µM.

Question: How did the IC50 turn out when `CN(C)CCCOc1ccc(-c2cc(-c3ccc(F)cc3)on2)cc1` [Compound 22] was run?
Answer: Its IC50 is 3.1 µM.

Question: For `CN1CCN(CCCOc2ccc(-c3cc(-c4ccccc4)on3)cc2)CC1` [Compound 25], which IC50 is on record?
Answer: The IC50 was 6.2 µM.

Question: How did the IC50 turn out when `CN1CCN(CCCOc2ccc(-c3cc(-c4ccc(Cl)cc4)on3)cc2)CC1` [Compound 27, piperazine, 1-[3-[4-[5-(4-chlorophenyl)-3-isoxazolyl]phenoxy]propyl]-4-methyl-] was run?
Answer: Its IC50 is 1.6 µM.

Question: Which IC50 does the source give for `CN(C)CCCOc1ccc(-c2noc(-c3ccccc3)c2Br)cc1` [Compound 28] here?
Answer: The IC50 was 10.9 µM.

Question: `CN(C)CCCOc1ccc(-c2noc(-c3ccccc3)c2Cl)cc1` [Compound 29] was tested. Which IC50 did it give?
Answer: Its IC50 is 6 µM.

Question: Which IC50 does the source give for `CN(C)CCCOc1cccc(-c2cc(-c3ccc(Cl)cc3)on2)c1` [Compound 32] here?
Answer: Its IC50 is 8.1 µM.

Question: For `Cc1ccc(-c2cc(-c3cccc(OCCCN(C)C)c3)no2)cc1` [Compound 33], which IC50 is on record?
Answer: Its IC50 is 5.1 µM.

Question: Which IC50 does the source give for `CN(C)CCCOc1cccc(-c2cc(-c3ccccc3)on2)c1` [Compound 34] here?
Answer: Its IC50 is 10.3 µM.

Question: How did the IC50 turn out when `CN1CCN(CCCOc2ccccc2-c2cc(-c3ccccc3)on2)CC1` [Compound 35] was run?
Answer: The IC50 was 12.1 µM.

Question: How did the IC50 turn out when `CN1CCN(CCCOc2ccccc2-c2cc(-c3ccc(Cl)cc3)on2)CC1` [Compound 36] was run?
Answer: Its IC50 is 5.6 µM.

Question: How did the IC50 turn out when `CCN(CC)CCCOc1ccccc1-c1cc(-c2ccccc2)on1` [Compound 37] was run?
Answer: Its IC50 is 6.5 µM.

Question: Which IC50 does the source give for `CN(C)CCCOc1ccccc1-c1cc(-c2ccc(Cl)cc2)on1` [Compound 38] here?
Answer: The IC50 was 4.4 µM.

Question: Which IC50 does the source give for `CN1CCN(CCCCOc2ccc(-c3cc(-c4ccc(Cl)cc4)on3)cc2)CC1` [Compound 39] here?
Answer: The IC50 was 8.9 µM.

Question: For `CN(C)CCCCOc1ccc(-c2cc(-c3ccc(Cl)cc3)on2)cc1` [Compound 40], which IC50 is on record?
Answer: Its IC50 is 3.9 µM.

Question: For `CN1CCN(CCCCOc2ccccc2-c2cc(-c3ccc(Cl)cc3)on2)CC1` [Compound 41], which IC50 is on record?
Answer: The IC50 was 11 µM.

Same assay, conditions: Table 3; inhibition of I125-IL-8 (0.125 nM) binding to human neutrophils, 37° C. 60 minutes; read-out: IC50

Question: Which IC50 does the source give for `CN1CCCC(COc2ccc(-c3cc(-c4ccccc4)on3)cc2)C1` (stereo not shown) [Compound 43] here?
Answer: The IC50 was 5.3 µM.

Question: With `CN1CCC(Oc2ccc(-c3cc(-c4ccccc4)on3)cc2)CC1` [Compound 44] as the compound, how does the IC50 read?
Answer: Its IC50 is 7.6 µM.

Same assay, conditions: Table 4; inhibition of I125-IL-8 (0.125 nM) binding to human neutrophils, 37° C. 60 minutes; read-out: IC50

Question: How did the IC50 turn out when `CN(C)CCCNC(=O)c1ccc(-c2cc(-c3ccc(Cl)cc3)on2)cc1` [Compound 45] was run?
Answer: The IC50 was 5.8 µM.

Question: With `CN1CCN(CCCNC(=O)c2ccc(-c3cc(-c4ccc(Cl)cc4)on3)cc2)CC1` [Compound 46] as the compound, how does the IC50 read?
Answer: Its IC50 is 6.1 µM.

Question: Which IC50 does the source give for `COc1ccc(-c2cc(-c3ccc(C(=O)NCCCN(C)C)cc3)no2)cc1` [Compound 48] here?
Answer: Its IC50 is 18.1 µM.

Same assay, conditions: Table 6; inhibition of I125-IL-8 (0.125 nM) binding to human neutrophils, 37° C. 60 minutes; read-out: IC50

Question: With `CN(C)CCCNc1ccc(-c2nc(-c3ccc(Cl)cc3)no2)cn1` [Compound 54, 1,3-propanediamine, N^1-[5-[3-(4-chlorophenyl)-1,2,4-oxadiazol-5-yl]-2-pyridinyl]-N^3, N^3-dimethyl-] as the compound, how does the IC50 read?
Answer: The IC50 was 5.35 µM.

Question: Which IC50 does the source give for `CN(C)CCCOc1ccc(-c2nc(-c3ccc(Cl)cc3)no2)cn1` [Compound 55] here?
Answer: Its IC50 is 4.78 µM.

Same assay, conditions: unlabelled IL-8 as standard in the I125-IL-8 binding assay; read-out: IC50 of standard antagonist

Question: Which IC50 does the source give for “Unlabelled IL-8: Unlabelled IL-8 (Interleukin-8, chemotactic cytokine) serves as the standard antagonist in the binding assay [reference compound]” here?
Answer: The IC50 was ~0.001 µM.
